# Reference: patent US20050130252A1, “Stabilized susceptibility tests of aerobic pathogens” (Wyeth Holdings Corporation, priority 2003, published 2005)
# Read-outs that look alike come from different tables or passages of the source.
# Legend:
# Assay in all cases: Broth microdilution MIC
# Type in all cases: cell-based
# [1] = system: Enterococcus faecalis GC2242 Vancomycin-Resistant; settings: for In Vitro Activity of Tigecycline: Broth, E. faecalis GC2242 Vancomycin-Resistant; for MIC: Enterococcus faecalis, read-out: Minimal Inhibitory Concentration
# Experimental: (§1) The process for preparing susceptibility test medium are the following steps: • a. Preparing Mueller Hinton Broth II medium by adding 22 grams powdered media to 1.0 liter distilled water; • b. Autoclaving (121° C., 15 psi, 15 minutes) and cooling the medium; • c. Adding Oxyrase® up to about 10% final volume and keeping at 35-37° C. in an incubator for 30 minutes; • d. Adding about 50 μL to each well of a 96 well microtiter plate; • e. Weighing drug and adding broth to drug to bring up to about (standard 128 μg/ml); • f. Adding 50 μL of the drug to the first column of the titer plate; • g. Diluting by two-fold serial diluting across or down the plate. • h. Preparing a Prompt™ inoculum at 10^8 CFU/ml; • i. Diluting inoculum 1:100 in the broth at […] in 9.9 ml (1:100) is 10^6 colony forming units (CFU) forming the adjusted inoculum; • j. Adding 50 μL of the adjusted inoculum to the wells of the microtiter plate; • k. Incubating the plates at 35-37° C. for 18-22 hours; and • l. Reading, with the unaided eye, the MIC.
# (§2) The in vitro activities of tigecycline and control antibiotics were determined by the broth microdilution method as recommended by the NCCLS. (National Committee for Clinical Laboratory Standards, 2003. Methods for Dilution Antimicrobial Susceptibility Tests for Bacteria That Grow Aerobically; Approved Standards: M7-A6, Sixth ed, vol. 23., National Committee for Clinical Laboratory Standards Wayne, Pa.) was used for the standard procedures. MBH with 5% lysed horse blood was used for testing S. pneumoniae and Haemophilus Test Medium was used for testing H. influenzae. Oxyrase® (Oxyrase Inc, Mansfield, Ohio) was used according to the manufacturer's instructions by adding 1 ml of Oxyrase® to 50 ml of media. Media age studies were performed by preparing MHB in multiple flasks, then storing the media under various conditions. MICs were usually performed in duplicate on each day of testing. Storage under anaerobic conditions was conducted in an anaerobic chamber (MACS MG 1000, Don Whitley Scientific LTD). The pH of the media was determined by pH meter (Corning 430). A comparison of the in vitro activity of tigecycline by agar and broth dilution methodolgies with and without Oxyrase® against clinical isolates is shown in Table 1.
# [2] = system: Escherichia coli GC1073 tet(B) wt; settings: for In Vitro Activity of Tigecycline: Broth, E. coli GC1073 tet(B) wt
# Experimental: as §1, §2
# [3] = system: Enterococcus faecalis GC4555 ATCC Control; settings: for In Vitro Activity of Tigecycline: Broth, E. faecalis GC4555 ATCC Control; for MIC: Enterococcus faecalis, E. faecalis GC4555 (ATCC Control), read-out: Minimal Inhibitory Concentration
# Experimental: as §1, §2
# [4] = system: Staphylococcus aureus GC2216 ATCC Control; settings: for In Vitro Activity of Tigecycline: Broth, S. aureus GC2216 ATCC Control; for MIC: Staphylococcus aureus, S. aureus GC2216 (ATCC Control), read-out: Minimal Inhibitory Concentration
# Experimental: as §1, §2
# [5] = system: S. pneumoniae GC4465 (Clinical); settings: Streptococcus pneumoniae, read-out: Minimal Inhibitory Concentration
# Experimental: as §1, §2
# [6] = system: Candida albicans GC3066 ATCC Control; settings: for In Vitro Activity of Tigecycline: Broth, C. albicans GC3066 ATCC Control; for MIC: Candida albicans, C. albicans GC3066 ATCC (Control), read-out: Minimal Inhibitory Concentration
# Experimental: as §1, §2
# [7] = system: Staphylococcus aureus GC1131 Clinical isolate; settings: for In Vitro Activity of Tigecycline: Broth, S. aureus GC1131; for MIC: Staphylococcus aureus, S. aureus GC1131 (Clinical), read-out: Minimal Inhibitory Concentration
# Experimental: as §1, §2
# [8] = system: Staphylococcus aureus GC6466 Clinical - tet(M); settings: for In Vitro Activity of Tigecycline: Broth, S. aureus GC6466 tet(M); for MIC: Staphylococcus aureus, read-out: Minimal Inhibitory Concentration
# Experimental: as §1, §2
# [9] = system: Escherichia coli GC2203 ATCC Control; settings: for In Vitro Activity of Tigecycline: Broth, E. coli GC2203 ATCC Control; for MIC: Escherichia coli, E. coli GC2203 (ATCC Control), read-out: Minimal Inhibitory Concentration
# Experimental: as §1, §2
# [10] = system: S. pyogenes GC4563 (Clinical); settings: Streptococcus pyogenes, read-out: Minimal Inhibitory Concentration
# Experimental: as §1, §2
# [11] = system: Enterococcus faecalis GC2267 tet(L) + (M) + (S); settings: for In Vitro Activity of Tigecycline: Broth, E. faecalis GC2267 tet(L) + (M) + (S); for MIC: Enterococcus faecalis, read-out: Minimal Inhibitory Concentration
# Experimental: as §1, §2
# [12] = system: Staphylococcus aureus GC4536 Smith MP -In Vivo; settings: for In Vitro Activity of Tigecycline: Broth, S. aureus GC4536 Smith; for MIC: Staphylococcus aureus, S. aureus GC4536 (Smith MP - In Vivo), read-out: Minimal Inhibitory Concentration
# Experimental: as §1, §2
# [13] = system: Escherichia coli GC2270 tet(M); settings: for MIC: Escherichia coli, read-out: Minimal Inhibitory Concentration
# Experimental: as §1, §2
# [14] = system: M. catarrhalis GC6907 (Clinical); settings: Moraxella catarrhalis, read-out: Minimal Inhibitory Concentration
# Experimental: as §1, §2
# [15] = system: Escherichia coli GC4560 IMP mutant; settings: E. coli GC4560 IMP mutant
# Experimental: as §1, §2
# [16] = 336 h, Aged Media (two weeks at RT)
structure (smiles),measurement,setting,value
"CN(C)c1cc(NC(=O)CNC(C)(C)C)c(O)c2c1C[C@H]1C[C@H]3[C@H](N(C)C)C(O)=C(C(N)=O)C(=O)[C@@]3(O)C(O)=C1C2=O [Tigecycline, tigecycline]",In Vitro Activity of Tigecycline,[1]; Oxyrase (2%),0.12
same,In Vitro Activity of Tigecycline,[1]; no Oxyrase,0.50
same,MIC,[1]; 336 h,0.12 mg/L
same,MIC,[1],0.06 mg/L
same,In Vitro Activity of Tigecycline,[2]; Oxyrase (2%),0.12
same,In Vitro Activity of Tigecycline,[2]; no Oxyrase,0.50
same,MIC,"[2]; Escherichia coli, read-out: Minimal Inhibitory Concentration",0.12 mg/L
same,In Vitro Activity of Tigecycline,[3]; Oxyrase (2%),0.06
same,In Vitro Activity of Tigecycline,[3]; no Oxyrase,0.50
same,MIC,[3]; [16],0.25 mg/L
same,MIC,[3]; Fresh Media,0.03 mg/L
same,In Vitro Activity of Tigecycline,[4]; Oxyrase (2%),0.12
same,In Vitro Activity of Tigecycline,[4]; no Oxyrase,0.50
same,MIC,[4]; [16],0.25 mg/L
same,MIC,[4]; Fresh Media,0.12 mg/L
same,MIC,[5]; [16],0.03 mg/L
same,MIC,[5]; Fresh Media,< 0.008 mg/L
same,In Vitro Activity of Tigecycline,[6]; Oxyrase (2%),>16
same,In Vitro Activity of Tigecycline,[6]; no Oxyrase,>16
same,MIC,[6]; [16],> 8 mg/L
same,MIC,[6]; Fresh Media,> 8 mg/L
same,In Vitro Activity of Tigecycline,[7]; Oxyrase (2%),0.25
same,In Vitro Activity of Tigecycline,[7]; no Oxyrase,0.50
same,MIC,[7]; [16],0.25 mg/L
same,MIC,[7]; Fresh Media,0.25 mg/L
same,In Vitro Activity of Tigecycline,[8]; Oxyrase (2%),0.12
same,In Vitro Activity of Tigecycline,[8]; no Oxyrase,0.50
same,MIC,[8]; 336 h,0.25 mg/L
same,MIC,[8],0.12 mg/L
same,In Vitro Activity of Tigecycline,[9]; Oxyrase (2%),0.12
same,In Vitro Activity of Tigecycline,[9]; no Oxyrase,0.25
same,MIC,[9]; [16],0.12 mg/L
same,MIC,[9]; Fresh Media,0.03 mg/L
same,MIC,[10]; [16],0.03 mg/L
same,MIC,[10]; Fresh Media,< 0.008 mg/L
same,In Vitro Activity of Tigecycline,[11]; Oxyrase (2%),0.12
same,In Vitro Activity of Tigecycline,[11]; no Oxyrase,0.50
same,MIC,[11]; 336 h,0.25 mg/L
same,MIC,[11],0.12 mg/L
same,In Vitro Activity of Tigecycline,[12]; Oxyrase (2%),0.12
same,In Vitro Activity of Tigecycline,[12]; no Oxyrase,0.50
same,MIC,[12]; [16],0.25 mg/L
same,MIC,[12]; Fresh Media,0.12 mg/L
same,In Vitro Activity of Tigecycline,"[13]; Broth, no Oxyrase, E. coli GC2270 tet(M)",0.50
same,MIC,[13]; 336 h,0.25 mg/L
same,MIC,[13],0.06 mg/L
same,MIC,[14]; [16],0.03 mg/L
same,MIC,[14]; Fresh Media,0.015 mg/L
same,In Vitro Activity of Tigecycline,[15]; Oxyrase (2%),0.03
same,In Vitro Activity of Tigecycline,[15]; no Oxyrase,0.25
